Laboratory results from US20120095055A1, “HEXAHYDROCYCLOPENTYL[f]INDAZOLE 5-HYDROXYMETHYL ETHANOLS AND DERIVATIVES THEREOF AS SELECTIVE GLUCOCORTICOID RECEPTOR MODULATORS” (Merck Sharp & Dohme, Corp., priority 2009, published 2012).

target: T1, glucocorticoid receptor (GR) (Homo sapiens, UniProt P04150); test: GR Ligand Binding Assay (3H-dexamethasone displacement, HeLa cell lysate); conditions: 3H-DEX trace, DEX as reference, read-out: GR BIND Ki
T1 construct: endogenous in cells; host or cells: HeLa (ATCC) cell lysate supernatant
T1 sequence (P04150 1-777): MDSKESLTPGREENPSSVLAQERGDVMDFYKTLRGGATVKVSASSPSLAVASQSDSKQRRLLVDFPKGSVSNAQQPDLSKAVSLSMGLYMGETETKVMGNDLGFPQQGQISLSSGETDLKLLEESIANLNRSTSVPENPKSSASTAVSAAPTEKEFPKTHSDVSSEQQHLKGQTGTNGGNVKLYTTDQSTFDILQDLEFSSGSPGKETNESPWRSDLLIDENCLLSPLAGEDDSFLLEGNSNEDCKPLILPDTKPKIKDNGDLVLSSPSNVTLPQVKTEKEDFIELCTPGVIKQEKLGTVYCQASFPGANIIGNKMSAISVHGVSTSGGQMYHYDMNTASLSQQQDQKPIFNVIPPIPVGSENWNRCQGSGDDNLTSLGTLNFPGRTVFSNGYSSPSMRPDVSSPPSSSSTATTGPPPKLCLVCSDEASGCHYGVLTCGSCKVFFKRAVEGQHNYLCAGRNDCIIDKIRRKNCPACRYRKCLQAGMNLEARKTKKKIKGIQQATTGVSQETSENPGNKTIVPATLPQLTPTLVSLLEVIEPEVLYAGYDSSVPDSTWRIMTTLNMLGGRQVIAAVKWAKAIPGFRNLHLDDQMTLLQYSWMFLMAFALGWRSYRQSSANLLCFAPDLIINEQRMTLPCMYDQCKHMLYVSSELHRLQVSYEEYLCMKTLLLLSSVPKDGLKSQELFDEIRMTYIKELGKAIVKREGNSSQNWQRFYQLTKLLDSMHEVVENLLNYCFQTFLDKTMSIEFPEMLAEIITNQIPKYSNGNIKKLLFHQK
Method: Binding Buffer: TEGM (10 mM Tris-HCl, 1 mM EDTA, 10% glycerol, 1 mM beta-mecaptoethanol, 10 mM Sodium Molybdate, pH 7.2)
Dexmethasone-methyl-^3H, (DEX*); (Amersham cat# TRK645) Dexamethasone(DEX) (Sigma, cat# D1756):
Cells (Hall R. E., et al., European Journal of Cancer, 30A: 484-490 (1994)) HeLa (ATCC) cultured in RPMI 1640 (Gibco 11835-055) containing 20 mM Hepes, 4 mM L-glu, 10 ug/ml of human insulin (Sigma, I-0259), 10% FBS and 20 ug/ml of Gentamicin (Gibco#15710-072) are rinsed twice in PBS. Phenol red-free Trypsin-EDTA is diluted in the same PBS 1:10. The cell layers are rinsed with 1× Trypsin, extra Trypsin is poured out, and the cell layers are incubated at 37° C. for ˜2 min. The flask is tapped and checked for signs of cell detachment. Once the cells begin to slide off the flask, the complete media is added. The cells are counted at this point, then diluted to the appropriate concentration and split into flasks or dishes for further culturing (Usually 1:3 to 1:6 dilution).
When the cells are 70 to 85% confluent, they are detached as described above, and collected by centrifuging at 1000 g for 10 minutes at 4° C. The cell pellet is washed twice with TEGM (10 mM Tris-HCl, 1 mM EDTA, 10% glycerol, 1 mM beta-mercaptoethanol, 10 mM Sodium Molybdate, pH 7.2). After the final wash, the cells are resuspended in TEGM at a concentration of 10^7 cells/mL. The cell suspension is snap frozen in liquid nitrogen or ethanol/dry ice bath and transferred to −80° C. freezer on dry ice. Before setting up the binding assay, the frozen samples are left on ice-water to just thaw (˜1 hr). Then the samples are centrifuged at 12,500 g to 20,000 g for 30 min at 4° C. The supernatant is used to set-up assay right away. If using 50 μL of supernatant, the test compound can be prepared in 50 μL of the TEGM buffer.
1×TEGM buffer is prepared, and the isotope-containing assay mixture is prepared in the following order: EtOH (2% final concentration in reaction), ^3H-DEX (Amersham Biosciences) and 1×TEGM. [e.g. For 100 samples, 200 μL (100×2) of EtOH+4.25 μL of 1:10 ^3H—Dex stock+2300 μL (100×23) 1×TEGM]. The compound is serially diluted, e.g., if starting final conc. is 1 μM, and the compound is in 25 μL of solution, for duplicate samples, 75 μL of 4×1 μM solution is made and 3 μL of 100 μM is added to 72 μL of buffer, and 1:5 serial dilution.
25 μL, of 3H-DEX (6 nM) trace and 25 μL compound solution are first mixed together, followed by addition of 50 μL receptor solution. The reaction is gently mixed, spun briefly at about 200 rpm and incubated at 4° C. overnight. 100 μL of 50% HAP slurry is prepared and added to the incubated reaction which is then vortexed and incubated on ice for 5 to 10 minutes. The reaction mixture is vortexed twice more to resuspend HAP while incubating reaction. The samples in 96-well format are then washed in wash buffer using The FilterMate™ Universal Harvester plate washer (Packard). The washing process transfers HAP pellet containing ligand-bound expressed receptor to Unifilter-96 GF/B filter plate (Packard). The HAP pellet on the filter plate is incubated with 50 μL of MICROSCINT (Packard) scintillint for 30 minutes before being counted on the TopCount microscintillation counter (Packard). IC50s are calculated using DEX as a reference.

| SMILES | Ki |
| --- | --- |
| C[C@]12Cc3cnn(-c4ccc(F)cc4)c3C=C1CC[C@@]2(CO)CC(O)c1ccc(F)cn1 (single isomer, unassigned) [Example 22a] | 2.3 nM |
| C[C@]12Cc3cnn(-c4ccc(F)cc4)c3C=C1CC[C@@]2(CO)CC(O)c1ccc(F)cn1 (single isomer, unassigned) [Example 22b] | 5.1 nM |
| C[C@]12Cc3cnn(-c4ccccc4)c3C=C1CC[C@@]2(CO)CC(O)c1ccccn1 (single isomer, unassigned) [Example 23b] | 3.3 nM |
| CC(O)(C[C@]1(CO)CCC2=Cc3c(cnn3-c3ccc(F)cc3)C[C@@]21C)c1cccnc1 (single isomer, unassigned) [Example 25a] | 26.3 nM |
| COc1cccnc1C(O)C[C@]1(CO)CCC2=Cc3c(cnn3-c3cccc(F)c3)C[C@@]21C (single isomer, unassigned) [Example 26a] | 8.6 nM |
| COc1cccnc1C(O)C[C@]1(CO)CCC2=Cc3c(cnn3-c3cccc(F)c3)C[C@@]21C (single isomer, unassigned) [Example 26b] | 35.5 nM |
| C[C@]12Cc3cnn(-c4cccc(F)c4)c3C=C1CC[C@@]2(CO)CC(O)c1cccnc1 (single isomer, unassigned) [Example 27a] | 13.9 nM |
| C[C@]12Cc3cnn(-c4ccc(F)cc4)c3C=C1CC[C@@]2(CO)CC(O)C(F)(F)F (single isomer, unassigned) [Example 28a] | 8.3 nM |
| C[C@]12Cc3cnn(-c4ccc(F)cc4)c3C=C1CC[C@@]2(CO)CC(O)c1ccccc1F (stereo partly drawn) [Example 4, 1-(2-fluorophenyl)-2-[(4αS,5R)-1-(4-fluorophenyl)-5-(hydroxymethyl)-4α-methyl-1,4,4α,5,6,7-hexahydrocyclopenta[f]indazol-5-yl]ethanol] | 0.9 nM |
| C[C@]12Cc3cnn(-c4ccc(F)cc4)c3C=C1CC[C@@]2(CO)CC(O)c1cccc(Cl)c1 (stereo partly drawn) [Example 8, 1-(3-chlorophenyl)-2-[(4αS,5R)-1-(4-fluorophenyl)-5-(hydroxymethyl)-4α-methyl-1,4,4α,5,6,7-hexahydrocyclopenta[f]indazol-5-yl]ethanol] | 1.2 nM |
| C[C@]12Cc3cnn(-c4ccc(F)cc4)c3C=C1CC[C@@]2(CO)CC(O)c1cc(F)cc(F)c1 (stereo partly drawn) [Example 9, 1-(3,5-difluorophenyl)-2-[(4αS,5R)-1-(4-fluorophenyl)-5-(hydroxymethyl)-4α-methyl-1,4,4α,5,6,7-hexahydrocyclopenta[f]indazol-5-yl]ethanol] | 2.1 nM |

Continued by falling Ki, values first:

| Ki | SMILES |
| --- | --- |
| 21.9 nM | CC(O)(C[C@]1(CO)CCC2=Cc3c(cnn3-c3ccc(F)cc3)C[C@@]21C)c1cccnc1 (single isomer, unassigned) [Example 25b] |
| 19.2 nM | C[C@]12Cc3cnn(-c4ccc(F)cc4)c3C=C1CC[C@@]2(CO)CC1OC(=O)c2ccccc21 (stereo partly drawn) [Example 11, 3-{[(4αS,5R)-1-(4-fluorophenyl)-5-(hydroxymethyl)-4α-methyl-1,4,4α,5,6,7,7a,8-octahydrocyclopenta[f]indazol-5-yl]methyl}-2-benzofuran-1(3H)-one] |
| 13.4 nM | C[C@]12Cc3cnn(-c4cccc(F)c4)c3C=C1CC[C@@]2(CO)CC(O)c1cccnc1 (single isomer, unassigned) [Example 27b] |
| 11.8 nM | C[C@]12Cc3cnn(-c4ccccc4)c3C=C1CC[C@@]2(CO)CC(O)c1cccnc1 (single isomer, unassigned) [Example 29a] |
| 8.2 nM | C[C@]12Cc3cnn(-c4ccccc4)c3C=C1CC[C@@]2(CO)CC(O)c1cccnc1 (single isomer, unassigned) [Example 29b] |
| 7.7 nM | C[C@]12Cc3cnn(-c4ccccc4)c3C=C1CC[C@@]2(CO)CC(O)c1ccccn1 (single isomer, unassigned) [Example 23a] |
| 7.5 nM | COc1ccc(C(O)C[C@]2(CO)CCC3=Cc4c(cnn4-c4ccc(F)cc4)C[C@@]32C)nc1 (single isomer, unassigned) [Example 24b] |
| 5.4 nM | C[C@]12Cc3cnn(-c4ccc(F)cc4)c3C=C1CC[C@@]2(CO)CC(O)C(F)(F)F (single isomer, unassigned) [Example 28b] |
| 3.7 nM | Cc1ccc(C(O)C[C@]2(CO)CCC3=Cc4c(cnn4-c4ccc(F)cc4)C[C@@]32C)nc1 (stereo partly drawn) [Example 16, 2-[(4αS,5R)-1-(4-fluorophenyl)-5-(hydroxymethyl)-4α-methyl-1,4,4α,5,6,7-hexahydrocyclopenta[f]indazol-5-yl]-1-(5-methylpyridin-2-yl)ethanol] |
| 3.1 nM | COc1ccc(C(O)C[C@]2(CO)CCC3=Cc4c(cnn4-c4ccc(F)cc4)C[C@@]32C)nc1 (single isomer, unassigned) [Example 24a] |
